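How tested: cells in 96-well plates exposed to compound for 48 hours at five concentrations. GI50 = concentration required for 50% inhibition of growth.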 Active and inactive are the calls of the source. No stated cut-off is given here; in the data, active = GI50 up to about 1.1 µM and inactive = higher.
Columns and labels:
Experiment in all cases: growth of human tumour cells (NCI), 48 h
786-0 = test system: 786-0
A498 = test system: A498
A549 = test system: A549
ACHN = test system: ACHN
BT-549 = test system: BT-549
CAKI-1 = test system: CAKI-1
CCRF-CEM = test system: CCRF-CEM
COLO 205 = test system: COLO 205
DU-145 = test system: DU-145
EKVX = test system: EKVX
HCC 2998 = test system: HCC 2998
HCT-116 = test system: HCT-116
HCT-15 = test system: HCT-15
HL-60 = test system: HL-60
HOP-62 = test system: HOP-62
HOP-92 = test system: HOP-92
HT-29 = test system: HT-29
Hs-578T = test system: Hs-578T
IGROV-1 = test system: IGROV-1
K562 = test system: K562
KM12 = test system: KM12
LOX IMVI = test system: LOX IMVI
M14 = test system: M14
MCF7 = test system: MCF7
MDA-MB-231 = test system: MDA-MB-231
MDA-MB-435 = test system: MDA-MB-435
MDA-N = test system: MDA-N
MOLT-4 = test system: MOLT-4
Malme-3M = test system: Malme-3M
NCI-H226 = test system: NCI-H226
NCI-H23 = test system: NCI-H23
NCI-H460 = test system: NCI-H460
NCI-H522 = test system: NCI-H522
NCI/ADR-RES = test system: NCI/ADR-RES
OVCAR-3 = test system: OVCAR-3
OVCAR-4 = test system: OVCAR-4
OVCAR-5 = test system: OVCAR-5
OVCAR-8 = test system: OVCAR-8
PC-3 = test system: PC-3
RPMI-8226 = test system: RPMI-8226
RXF 393 = test system: RXF 393
SF-268 = test system: SF-268
SF-295 = test system: SF-295
SF-539 = test system: SF-539
SK-MEL-28 = test system: SK-MEL-28
SK-MEL-2 = test system: SK-MEL-2
SK-MEL-5 = test system: SK-MEL-5
SK-OV-3 = test system: SK-OV-3
SN12C = test system: SN12C
SNB-19 = test system: SNB-19
SNB-75 = test system: SNB-75
SR = test system: SR
SW-620 = test system: SW-620
T47D = test system: T47D
TK-10 = test system: TK-10
U-251 = test system: U-251
UACC-257 = test system: UACC-257
UACC-62 = test system: UACC-62
UO-31 = test system: UO-31

SMILES: CC/C(Cl)=N\OC(=O)Nc1ccc(C#N)cc1
- GI50 (786-0): 11.2 µM (inactive)
- GI50 (A498): 16.6 µM (inactive)
- GI50 (A549): 18.2 µM (inactive)
- GI50 (ACHN): 14.3 µM (inactive)
- GI50 (BT-549): 15.1 µM (inactive)
- GI50 (CAKI-1): 5.04 µM (inactive)
- GI50 (CCRF-CEM): 1.63 µM (inactive)
- GI50 (COLO 205): 1.82 µM (inactive)
- GI50 (DU-145): 16 µM (inactive)
- GI50 (EKVX): 13.3 µM (inactive)
- GI50 (HCC 2998): 16.4 µM (inactive)
- GI50 (HCT-116): 14.6 µM (inactive)
- GI50 (HCT-15): 7.93 µM
- GI50 (HL-60): 2.01 µM (inactive)
- GI50 (HOP-62): 17.2 µM (inactive)
- GI50 (HOP-92): 3.15 µM (inactive)
- GI50 (HT-29): 18.6 µM (inactive)
- GI50 (Hs-578T): 21.9 µM (inactive)
- GI50 (IGROV-1): 16.4 µM (inactive)
- GI50 (K562): 1.86 µM (inactive)
- GI50 (KM12): 17.1 µM (inactive)
- GI50 (LOX IMVI): 4.47 µM (inactive)
- GI50 (M14): 12.3 µM (inactive)
- GI50 (MCF7): 15.1 µM (inactive)
- GI50 (MDA-MB-231): 15.3 µM (inactive)
- GI50 (MDA-MB-435): 15.6 µM (inactive)
- GI50 (MDA-N): 16.3 µM (inactive)
- GI50 (MOLT-4): 2.28 µM (inactive)
- GI50 (Malme-3M): 4.11 µM (inactive)
- GI50 (NCI-H226): 16.6 µM (inactive)
- GI50 (NCI-H23): 17.2 µM (inactive)
- GI50 (NCI-H460): 19.5 µM (inactive)
- GI50 (NCI-H522): 1.48 µM (inactive)
- GI50 (NCI/ADR-RES): 13.3 µM (inactive)
- GI50 (OVCAR-3): 18.5 µM (inactive)
- GI50 (OVCAR-4): 8.09 µM (inactive)
- GI50 (OVCAR-5): 15.9 µM (inactive)
- GI50 (OVCAR-8): 16.9 µM (inactive)
- GI50 (PC-3): 16.7 µM (inactive)
- GI50 (RPMI-8226): 2.28 µM (inactive)
- GI50 (RXF 393): 8.75 µM (inactive)
- GI50 (SF-268): 18.1 µM (inactive)
- GI50 (SF-295): 18.7 µM (inactive)
- GI50 (SF-539): 16.6 µM (inactive)
- GI50 (SK-MEL-28): 18 µM (inactive)
- GI50 (SK-MEL-2): 15.9 µM (inactive)
- GI50 (SK-MEL-5): 12.9 µM (inactive)
- GI50 (SK-OV-3): 4.94 µM (inactive)
- GI50 (SN12C): 16.4 µM (inactive)
- GI50 (SNB-19): > 100 µM (inactive)
- GI50 (SNB-75): 14.9 µM (inactive)
- GI50 (SR): 3.13 µM (inactive)
- GI50 (SW-620): 3.28 µM (inactive)
- GI50 (T47D): 10.8 µM (inactive)
- GI50 (TK-10): 16.4 µM (inactive)
- GI50 (U-251): 17.1 µM (inactive)
- GI50 (UACC-257): 16.1 µM (inactive)
- GI50 (UACC-62): 15 µM (inactive)
- GI50 (UO-31): 17.2 µM (inactive)

SMILES: COc1ccc2nc3cc(Cl)ccc3c(NCCCCCC(=O)NC(COc3cnc4c(ccc5cccnc54)c3)COc3cnc4c(ccc5cccnc54)c3)c2c1
- GI50 (786-0): 11 µM (inactive)
- GI50 (A498): 23.2 µM (inactive)
- GI50 (A549): 29.1 µM (inactive)
- GI50 (ACHN): 36.6 µM (inactive)
- GI50 (BT-549): 10.5 µM (inactive)
- GI50 (CAKI-1): 36.1 µM (inactive)
- GI50 (CCRF-CEM): 1.99 µM (inactive)
- GI50 (COLO 205): 2.79 µM (inactive)
- GI50 (DU-145): 11.3 µM (inactive)
- GI50 (EKVX): 22.8 µM (inactive)
- GI50 (HCC 2998): 12.6 µM (inactive)
- GI50 (HCT-116): 3.94 µM (inactive)
- GI50 (HCT-15): > 100 µM
- GI50 (HL-60): 3.44 µM (inactive)
- GI50 (HOP-62): 15.7 µM (inactive)
- GI50 (HOP-92): > 100 µM (inactive)
- GI50 (HT-29): 5.45 µM (inactive)
- GI50 (Hs-578T): 50.8 µM (inactive)
- GI50 (IGROV-1): 10 µM (inactive)
- GI50 (K562): 3.43 µM (inactive)
- GI50 (KM12): 5.92 µM (inactive)
- GI50 (LOX IMVI): 3.72 µM (inactive)
- GI50 (M14): 77.1 µM (inactive)
- GI50 (MCF7): 5.04 µM (inactive)
- GI50 (MDA-MB-231): 6.34 µM (inactive)
- GI50 (MDA-MB-435): 18.5 µM (inactive)
- GI50 (MDA-N): 19 µM (inactive)
- GI50 (MOLT-4): 1.65 µM (inactive)
- GI50 (Malme-3M): 34.9 µM (inactive)
- GI50 (NCI-H226): 4.73 µM (inactive)
- GI50 (NCI-H23): 28.2 µM (inactive)
- GI50 (NCI-H460): 5.47 µM (inactive)
- GI50 (NCI-H522): 26.9 µM (inactive)
- GI50 (NCI/ADR-RES): > 100 µM (inactive)
- GI50 (OVCAR-3): 4.02 µM (inactive)
- GI50 (OVCAR-4): 7.28 µM (inactive)
- GI50 (OVCAR-5): 24.1 µM (inactive)
- GI50 (OVCAR-8): 31.4 µM (inactive)
- GI50 (PC-3): 13.9 µM (inactive)
- GI50 (RPMI-8226): 5.65 µM (inactive)
- GI50 (RXF 393): 10.8 µM (inactive)
- GI50 (SF-268): 12.8 µM (inactive)
- GI50 (SF-295): 20.8 µM (inactive)
- GI50 (SF-539): 10.9 µM (inactive)
- GI50 (SK-MEL-28): 17.6 µM (inactive)
- GI50 (SK-MEL-2): 14.1 µM (inactive)
- GI50 (SK-OV-3): 21.9 µM (inactive)
- GI50 (SN12C): 22.9 µM (inactive)
- GI50 (SNB-19): 13.6 µM (inactive)
- GI50 (SNB-75): 0.0313 µM (active)
- GI50 (SR): 2.76 µM (inactive)
- GI50 (SW-620): 10.5 µM (inactive)
- GI50 (T47D): 7.29 µM (inactive)
- GI50 (TK-10): 27.5 µM (inactive)
- GI50 (U-251): 8.53 µM (inactive)
- GI50 (UACC-257): 8.93 µM (inactive)
- GI50 (UACC-62): 21.4 µM (inactive)
- GI50 (UO-31): 74.5 µM (inactive)

SMILES: O=c1n(-c2ccc(Cl)c(Cl)c2)c(=O)n(-c2ccc(Cl)c(Cl)c2)c(=O)n1-c1ccc(Cl)c(Cl)c1
- GI50 (786-0): 2.78 µM (inactive)
- GI50 (A498): 2.73 µM (inactive)
- GI50 (A549): 2.09 µM (inactive)
- GI50 (ACHN): 2.39 µM (inactive)
- GI50 (BT-549): 2.88 µM (inactive)
- GI50 (CAKI-1): 3.49 µM (inactive)
- GI50 (CCRF-CEM): 1.15 µM (inactive)
- GI50 (COLO 205): 0.719 µM (active)
- GI50 (DU-145): 4.01 µM (inactive)
- GI50 (EKVX): 3.5 µM (inactive)
- GI50 (HCC 2998): 2.2 µM (inactive)
- GI50 (HCT-116): 1.2 µM (inactive)
- GI50 (HCT-15): 1.58 µM
- GI50 (HL-60): 2.89 µM (inactive)
- GI50 (HOP-62): 3.67 µM (inactive)
- GI50 (HOP-92): 0.0144 µM (active)
- GI50 (HT-29): 2.59 µM (inactive)
- GI50 (Hs-578T): 2.96 µM (inactive)
- GI50 (IGROV-1): 3.21 µM (inactive)
- GI50 (K562): 2.06 µM (inactive)
- GI50 (KM12): 2.91 µM (inactive)
- GI50 (LOX IMVI): 2.55 µM (inactive)
- GI50 (M14): 3.2 µM (inactive)
- GI50 (MCF7): 1.82 µM (inactive)
- GI50 (MDA-MB-231): 1.8 µM (inactive)
- GI50 (MDA-MB-435): 3.93 µM (inactive)
- GI50 (MDA-N): 2.9 µM (inactive)
- GI50 (MOLT-4): 1.87 µM (inactive)
- GI50 (Malme-3M): 3.3 µM (inactive)
- GI50 (NCI-H226): 2.82 µM (inactive)
- GI50 (NCI-H23): 1.5 µM (inactive)
- GI50 (NCI-H460): 1.59 µM (inactive)
- GI50 (NCI-H522): 3.52 µM (inactive)
- GI50 (NCI/ADR-RES): 3.1 µM (inactive)
- GI50 (OVCAR-3): 2.99 µM (inactive)
- GI50 (OVCAR-4): 3.94 µM (inactive)
- GI50 (OVCAR-5): 3.63 µM (inactive)
- GI50 (OVCAR-8): 3.54 µM (inactive)
- GI50 (PC-3): 0.703 µM (active)
- GI50 (RPMI-8226): 0.558 µM (active)
- GI50 (RXF 393): 3.21 µM (inactive)
- GI50 (SF-268): 2.45 µM (inactive)
- GI50 (SF-295): 2.47 µM (inactive)
- GI50 (SF-539): 0.769 µM (active)
- GI50 (SK-MEL-28): 4.16 µM (inactive)
- GI50 (SK-MEL-2): 2.15 µM (inactive)
- GI50 (SK-MEL-5): 1.9 µM (inactive)
- GI50 (SK-OV-3): 2.11 µM (inactive)
- GI50 (SN12C): 3.09 µM (inactive)
- GI50 (SNB-19): 5.01 µM (inactive)
- GI50 (SNB-75): 2.53 µM (inactive)
- GI50 (SR): 3.55 µM (inactive)
- GI50 (SW-620): 3.15 µM (inactive)
- GI50 (T47D): 1.57 µM (inactive)
- GI50 (TK-10): 5.53 µM (inactive)
- GI50 (U-251): 3.71 µM (inactive)
- GI50 (UACC-257): 0.736 µM (active)
- GI50 (UACC-62): 4.27 µM (inactive)
- GI50 (UO-31): 2.76 µM (inactive)
